Results: US7259146B2, “Neuroprotective peptides” (Ortho-McNeil Pharmaceutical, Inc., priority 2000, dated 2007)

Experiments:
[1] = system: rat hippocampal cultures; assay: Neurite outgrowth assay (MAP2-FITC immunofluorescence), hippocampal cultures; assay type: cell-based; conditions: for overall neurite outgrowth response, hippocampal versus cortical cultures: comparison of hippocampal and cortical cultures; for dose-response profile: 10 fM-10 nM
Text: (§1) Dissociated hippocampal and cortical cell cultures were established from embryonic day 18 rat fetuses as previously described (Mattson et al., 1994). Briefly, fetuses were removed via cesarean section from pregnant moms (Sprague-Dawley) anesthetized with halothane according to the AVMA Panel on Euthanasia. Pups were decapitated and the brains were removed and placed in HEPES-buffered Hank's Balanced Salt solution (HBSS; Gibco). The hippocampi and cortices were dissected out and pooled according to tissue-type. Tissue was trypsinized for 15 min (1 mg/ml trypsin-HBSS; Worthington), rinsed with fresh HBSS, incubated in trypsin inhibitor (1 mg/ml; Sigma) for 5 min, rinsed again with fresh HBSS and then triturated in 1 ml fresh HBSS with a fire-polished glass pipette. Dissociated cells were seeded at 30,000 cells/well onto poly-D-lysine coated 96-well plates (Collaborative BioScience). Each well contained 100 μl of Eagle's Minimal Essential Media (MEM; Gibco) supplemented with 26 mM NaHCO3 (Sigma), 56 mM glucose (Sigma), 15 mM KCl (Sigma), 1 mM sodium pyruvate (Sigma), 1.1 mM L-glutamine (Sigma), 10% (v/v) heat-inactivated fetal bovine serum (Hyclone), and 0.001% gentamicin sulfate (Sigma) (pH 7.4). Cells were allowed to attach for 24 h in a humidified 37° C. 5% CO2 incubator before experimental treatment. The culture media was aspirated and exchanged with fresh media every three days.
(§2) Twenty-four hours after plating, cultures were treated with vehicle (PBS+0.1% BSA), 100 ng of various growth factors (brain derived neurotrophic factor (BDNF; Promega), glial-derived neurotrophic factor (GDNF; Promega), nerve growth factor (NGF; Boehringer Mannheim), basic fibroblast growth factor (bFGF; Boehringer Mannheim), insulin-like growth factor-1 (IGF-1; Boehringer Mannheim), neurotrophin-3 (NT3; Calbiochem), neurotrophin-4 (NT4; Calbiochem), ciliary neurotrophic factor (CNTF; Calbiochem), epidermal growth factor (EGF; Calbiochem), vascular endothelial growth factor (VEGF; Calbiochem)), or rhEPO (prepared same as above; 10 fM-10 nM)). Each treatment condition was run in quadruplicate or octuplicate. On the third day in culture, the media was aspirated off and replaced with fresh media and test compound. At one week in culture, the cells were fixed with 10% phosphate-buffered formalin for 15 min, then rinsed with DPBS (Sigma) and placed in blocking serum for 30 min (horse serum; 1:50 dilution in DPBS; Vector Labs). Cultures were rinsed again with DPBS and then incubated in primary antibody for 2 hr (microtubule-associated protein-2 (MAP-2) is a selective marker for dendritic processes; anti-mouse monoclonal (Chemicon); 1:1000 dilution of MAP-2 in antibody diluent (Zymed)). Negative control wells were incubated in antibody diluent alone. Background signal was determined by blank wells (cell-free) incubated with or without antibody. Cultures were rinsed again with DPBS and then placed in fluorescein for 1 hr (FITC; anti-mouse IgG; rat adsorbed; 1:50 dilution in DPBS; Vector Labs). Cultures were rinsed a final time with DPBS and then the plates were read on a Cytofluor 4000 fluorescence plate reader. Neurite outgrowth was expressed as percent change from control (vehicle; mean fluorescence±SD).
(§3) Dissociated hippocampal and cortical cell cultures were established from embryonic day 18 rat fetuses as previously described (Mattson et al., 1994). Briefly, fetuses were removed via cesarean section from pregnant moms (Sprague-Dawley) anesthetized with halothane according to the AVMA Panel on Euthanasia. Pups were decapitated and the brains were removed and placed in HEPES-buffered Hank's Balanced Salt solution (HBSS; Gibco). The hippocampi and cortices were dissected out and pooled according to tissue-type. […]

[2] = system: rat cerebral cortical cultures; assay: Neurite outgrowth assay (MAP2-FITC immunofluorescence), cortical cultures; assay type: cell-based; conditions: for dose-response profile: 10 fM-10 nM
Text: as §1, §2, §3

Sequence | overall neurite outgrowth response, hippocampal versus cortical cultures [1] | neurite outgrowth (in words) ([1]; hippocampal cultures) | dose-response profile ([1]; hippocampal cultures) | neurite outgrowth (in words) [2] | dose-response profile [2] | neurite outgrowth at peak activity, increase over vehicle ([1]; hippocampal cultures, EMP 10 fM-10 nM, one week in culture)
GGTYSCHFGPLTWVCKPQGG [EMP-1] | selective effects in hippocampal cultures over cortical cultures | promotes neurite outgrowth | typical bell-shaped dose-response profiles | promotes neurite outgrowth | flat response overall | 
GGTASCHFGPLTWVCKPQGG [EMP-6] | robust neurite outgrowth activity in both hippocampal and cortical cultures | promotes neurite outgrowth | typical bell-shaped dose-response profiles | promotes neurite outgrowth | typical bell-shaped dose-response profiles | 
GGTYSCHFAPLTWVCKPQGG [EMP-9] | less impressive overall | promotes neurite outgrowth | flat response profile | promotes neurite outgrowth | flat response overall | 
YCHFGPLTWVC [EMP-23] | effects were greater in cortical cultures than hippocampal cells | promotes neurite outgrowth | modest response | promotes neurite outgrowth | typical bell-shaped dose-response profiles | 43–46%
GGTYSCFGPLTWVCKPQGG [EMP-27] | less impressive overall | promotes neurite outgrowth | flat response profile | promotes neurite outgrowth | flat response overall | 
